According to patent US20260250272A1, “N-SUBSTITUTED QUINOLINONE COMPOUND, PREPARATION METHOD THEREFOR AND USE THEREOF” (VIGONVITA LIFE SCIENCES CO., LTD., priority 2022, published 2026):
Converted amounts (≈) assume the structure as drawn.

What was measured:
[1] = biological target: human recombinant D2L receptor (Homo sapiens, UniProt P14416); assay: Antagonistic activity against the D2L receptor (LANCE Ultra cAMP, CHO cells)
Experimental: The antagonistic effect of the compounds on the D2L receptor in the CHO cells expressing the human recombinant D2L receptor was assayed by using the LANCE® Ultra cAMP kit (PerkinElmer, USA). […] Amisulpride was used as a positive control.

hERG potassium channel = biological target: T1, hERG potassium channel (Homo sapiens, UniProt Q12809); assay: hERG potassium channel block, automatic patch clamp (QPatch, CHO cells); assay type: cell-based; conditions: CHO cells stably expressing hERG, highest concentration 20 μM; read-out: hERG inhibition (IC50)
T1 construct: expressed in transfected cells
Experimental: The hERG potassium channel block experiment was performed using the full-automatic patch-clamp technique (QPatch^HTX, Sophion, Stockholm, Sweden). The cell line is CHO cells stably expressing the hERG potassium channel. The compounds were tested at the highest test concentration of 20 μM in 3-fold dilution (n=3).

[2] = biological target: T2, human recombinant 5-HT2A receptor (Homo sapiens, UniProt P28223); assay: Antagonistic activity against the 5-HT2A receptor (IP-One-Gq, CHO cells); assay type: cell-based; conditions: serotonin stimulation
T2 construct: expressed in transfected cells; host or cells: CHO (5-HT2A-CHO)
Experimental: The antagonistic effect of the compounds on the 5-HT2A receptor in the CHO cells expressing the human recombinant 5-HT2A receptor was assayed by using the IP-One-Gq kit (Cisbio). […] Risperidone was used as a positive control.

[3] = Oil solubility test in benzyl benzoate (HPLC); assay type: physicochemical; conditions: organic solvent or mixture, thermodynamic from solid, 25° C., shaken 2 h
Experimental: The solubility test was performed by quantitative analysis using an external standard method of high-performance liquid chromatography.
Reference sample solution: 10 mg of reference sample was weighed, placed in a 20 mL volumetric flask, diluted to the scale with 80% acetonitrile, and shaken uniformly.
Test sample solution: an appropriate amount of sample was dissolved in benzyl benzoate to obtain a saturated solution. The mixture was placed in a shaker and shaken at 25° C. and 800 rpm for 2 h. The sample solution was filtered, and 100 μL of filtrate was added to a 10 mL volumetric flask, diluted to the scale with 80% acetonitrile, and shaken uniformly.

[4] = biological target: T3, human recombinant 5-HT1A receptor (Homo sapiens, UniProt P08908); assay: Agonistic activity against the 5-HT1A receptor (LANCE cAMP, HEK293 cells); assay type: cell-based; conditions: inhibition of cAMP production
T3 construct: expressed in transfected cells; host or cells: HEK293
T3 sequence (P08908 1-422): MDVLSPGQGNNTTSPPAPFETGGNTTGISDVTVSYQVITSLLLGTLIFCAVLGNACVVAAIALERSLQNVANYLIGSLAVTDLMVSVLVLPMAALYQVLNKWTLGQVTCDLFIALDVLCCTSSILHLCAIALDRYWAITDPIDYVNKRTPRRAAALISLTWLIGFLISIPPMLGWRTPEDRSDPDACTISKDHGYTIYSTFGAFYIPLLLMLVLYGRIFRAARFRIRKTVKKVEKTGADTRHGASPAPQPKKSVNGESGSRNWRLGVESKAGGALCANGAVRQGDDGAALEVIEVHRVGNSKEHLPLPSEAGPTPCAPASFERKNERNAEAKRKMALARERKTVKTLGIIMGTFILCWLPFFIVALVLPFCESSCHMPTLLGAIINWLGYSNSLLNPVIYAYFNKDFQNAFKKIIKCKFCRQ

human D3 receptor = human D3 receptor (Homo sapiens, UniProt P35462); assay: cell-based
human SERT = biological target: T4, human SERT (Homo sapiens, UniProt P31645); assay: cell-based; conditions: HEK-hSERT cells; read-out: Inhibitory activity against 5-HT transporter (IC50)
T4 construct: expressed in transfected cells; host or cells: HEK-293 (HEK-hSERT)
Experimental: The inhibitory effect of the compounds on the 5-HT transporter in the HEK-293 cells expressing human SERT was evaluated by using the neurotransmitter transporter uptake assay kit (Molecular Devices).

[5] = Human liver microsome assay; assay type: in vitro ADME; conditions: for half-life at 1 μM / CLint scaled at 1 μM: pH 7.41, human liver microsomes 0.5 mg/mL, compound 1 μM, NADPH 2 mM; for half-life at 1 μM: read-out: Half-life (t1/2, min); for CLint scaled at 1 μM: read-out: Intrinsic clearance (Clint, mL/min/kg)
Experimental: Preparation of magnesium-potassium buffer solution: a 100 mM potassium buffer and 5 mM MgCl2 were preheated together to obtain a magnesium-potassium buffer at a pH of 7.41. Preparation of 0.5 mM working solution: a 10 mM compound stock solution was added to 95 μL of acetonitrile. Preparation of 1.5 μM working solution containing microsomes (0.75 mg/mL): 1.5 μL of the 0.5 mM working solution and 18.75 μL of 20 mg/mL human liver microsome solution were added to 479.75 μL of the magnesium-potassium buffer. Preparation of NADPH stock solution (6 mM, 5 mg/mL): NADPH was dissolved in the magnesium-potassium buffer. 30 μL of 1.5 μM working solution containing 0.75 mg/mL human liver microsomes were added to each of the wells of a 96-well plate, and the plate was pre-incubated at 37° C. for 5 min. For a sample at 0 min, 150 μL of acetonitrile solution containing an internal standard was added, and then 15 μL of NADPH stock solution (6 mM) was added to initiate the reaction. For samples at other time points, 15 μL of NADPH stock solution (6 mM) was directly added to initiate the reaction. Final content of components: compound (1 μM), human liver microsomes (0.5 mg/mL), and NADPH (2 mM). 150 μL of cold stop buffer containing an internal standard was added at time points of 5 min, 15 min, 30 min, and 45 min to stop the sample reaction, the plate was centrifuged at 600 rpm for 10 min and then at 6000 rpm for 15 min, and the supernatant was taken for LC-MS/MS analysis.
A standard curve of the ln residual rate of the drug in the incubation system with respect to the incubation time was plotted by using Excel software, linear regression was performed to obtain a slope k, and the half-life T1/2 (min) and the intrinsic clearance CLint (mL/min/kg) value were calculated according to the following formula: […]

[6] = Pharmacokinetic experiment in rats, intramuscular injection; assay type: in vivo; conditions: SD male rats, 43.3 mmol/kg, benzyl benzoate vehicle, up to day 36
Experimental: The pharmacokinetic experiment in rats was performed on compounds 2, 3, 5, 6, 7, and 8 (non-fasting SD male rats, administered intramuscularly, at a dose of 43.3 mmol/kg, n=3). The vehicle was benzyl benzoate, the injection site was the thigh muscle of the hind limb, and about 0.3 mL of blood samples were collected from the jugular vein of rats at blood collection time points of day 0.25, day 2, day 4, day 6, day 8, day 15, day 22, day 29, and day 36. The collected blood was stored under ice-cold conditions, plasma was rapidly isolated by centrifugation and the precipitant was added, and the concentration of compound 1 (active metabolite) was quantitatively determined by LCMS.

Sequence of human recombinant D2L receptor (P14416 whole entry): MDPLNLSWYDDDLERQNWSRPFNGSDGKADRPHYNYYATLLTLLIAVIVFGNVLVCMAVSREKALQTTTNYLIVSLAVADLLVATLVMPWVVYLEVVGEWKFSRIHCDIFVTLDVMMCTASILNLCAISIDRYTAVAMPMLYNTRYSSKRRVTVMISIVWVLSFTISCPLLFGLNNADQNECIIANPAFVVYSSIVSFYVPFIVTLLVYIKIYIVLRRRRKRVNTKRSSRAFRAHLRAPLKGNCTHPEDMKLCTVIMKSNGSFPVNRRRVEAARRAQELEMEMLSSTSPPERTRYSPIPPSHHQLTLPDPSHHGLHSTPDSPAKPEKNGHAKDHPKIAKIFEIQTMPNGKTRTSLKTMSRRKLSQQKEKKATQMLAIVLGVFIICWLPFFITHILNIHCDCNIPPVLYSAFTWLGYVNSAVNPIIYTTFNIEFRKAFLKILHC
T1 sequence (Q12809 whole entry): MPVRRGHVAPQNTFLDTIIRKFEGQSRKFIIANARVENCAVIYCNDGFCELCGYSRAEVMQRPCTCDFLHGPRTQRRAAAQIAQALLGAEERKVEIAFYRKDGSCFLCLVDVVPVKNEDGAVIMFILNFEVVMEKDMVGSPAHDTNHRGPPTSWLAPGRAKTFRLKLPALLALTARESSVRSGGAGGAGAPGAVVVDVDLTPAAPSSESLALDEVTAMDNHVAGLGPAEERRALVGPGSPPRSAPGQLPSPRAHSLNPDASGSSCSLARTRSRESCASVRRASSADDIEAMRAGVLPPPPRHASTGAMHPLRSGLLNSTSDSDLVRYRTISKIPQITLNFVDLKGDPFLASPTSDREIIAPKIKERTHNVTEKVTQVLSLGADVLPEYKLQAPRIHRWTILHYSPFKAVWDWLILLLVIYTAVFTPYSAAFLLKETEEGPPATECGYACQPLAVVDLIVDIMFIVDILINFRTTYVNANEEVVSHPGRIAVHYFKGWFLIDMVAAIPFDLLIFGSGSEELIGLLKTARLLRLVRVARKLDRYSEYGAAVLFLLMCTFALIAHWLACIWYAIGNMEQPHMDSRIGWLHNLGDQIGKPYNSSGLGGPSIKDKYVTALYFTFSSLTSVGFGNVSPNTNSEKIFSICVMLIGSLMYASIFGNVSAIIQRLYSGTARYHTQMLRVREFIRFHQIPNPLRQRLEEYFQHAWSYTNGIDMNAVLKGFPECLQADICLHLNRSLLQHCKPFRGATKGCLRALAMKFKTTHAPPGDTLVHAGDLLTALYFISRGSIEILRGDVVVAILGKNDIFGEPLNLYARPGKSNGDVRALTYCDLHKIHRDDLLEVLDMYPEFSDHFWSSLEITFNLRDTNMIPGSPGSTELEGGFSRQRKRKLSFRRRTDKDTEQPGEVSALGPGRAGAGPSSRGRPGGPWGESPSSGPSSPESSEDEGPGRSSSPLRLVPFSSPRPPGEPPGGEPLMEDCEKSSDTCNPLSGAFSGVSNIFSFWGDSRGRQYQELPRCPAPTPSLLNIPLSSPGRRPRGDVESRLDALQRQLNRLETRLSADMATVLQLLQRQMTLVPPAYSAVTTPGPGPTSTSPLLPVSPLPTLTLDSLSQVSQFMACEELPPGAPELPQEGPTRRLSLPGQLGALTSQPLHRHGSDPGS
T2 sequence (P28223 whole entry): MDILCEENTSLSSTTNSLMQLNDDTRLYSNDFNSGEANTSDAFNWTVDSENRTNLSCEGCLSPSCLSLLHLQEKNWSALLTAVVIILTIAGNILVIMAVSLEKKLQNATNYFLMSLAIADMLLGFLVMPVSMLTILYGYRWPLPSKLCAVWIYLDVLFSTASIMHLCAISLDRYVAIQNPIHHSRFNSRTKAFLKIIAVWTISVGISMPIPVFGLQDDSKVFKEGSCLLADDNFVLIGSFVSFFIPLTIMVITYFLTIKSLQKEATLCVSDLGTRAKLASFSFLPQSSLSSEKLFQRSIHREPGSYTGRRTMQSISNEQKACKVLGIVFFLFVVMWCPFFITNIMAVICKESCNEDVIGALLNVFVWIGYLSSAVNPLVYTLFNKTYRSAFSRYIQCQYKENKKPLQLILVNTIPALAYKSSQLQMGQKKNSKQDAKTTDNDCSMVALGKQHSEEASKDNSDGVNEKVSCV
T4 sequence (P31645 whole entry): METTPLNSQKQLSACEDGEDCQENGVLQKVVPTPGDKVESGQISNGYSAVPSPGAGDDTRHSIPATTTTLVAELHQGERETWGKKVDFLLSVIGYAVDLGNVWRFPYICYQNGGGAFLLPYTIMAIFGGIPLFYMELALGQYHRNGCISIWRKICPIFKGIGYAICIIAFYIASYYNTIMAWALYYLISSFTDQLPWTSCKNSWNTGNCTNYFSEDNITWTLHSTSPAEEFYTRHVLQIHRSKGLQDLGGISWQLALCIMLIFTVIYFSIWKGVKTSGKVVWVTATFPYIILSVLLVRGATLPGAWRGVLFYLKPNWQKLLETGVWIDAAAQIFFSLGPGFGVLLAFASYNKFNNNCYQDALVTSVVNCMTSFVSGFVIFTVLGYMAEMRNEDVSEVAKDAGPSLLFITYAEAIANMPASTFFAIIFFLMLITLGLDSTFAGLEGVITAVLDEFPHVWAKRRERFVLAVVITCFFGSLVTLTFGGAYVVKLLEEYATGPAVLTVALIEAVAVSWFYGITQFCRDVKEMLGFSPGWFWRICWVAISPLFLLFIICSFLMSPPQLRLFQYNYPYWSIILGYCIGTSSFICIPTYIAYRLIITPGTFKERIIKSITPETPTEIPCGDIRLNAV
Sequence of human D3 receptor (P35462 whole entry): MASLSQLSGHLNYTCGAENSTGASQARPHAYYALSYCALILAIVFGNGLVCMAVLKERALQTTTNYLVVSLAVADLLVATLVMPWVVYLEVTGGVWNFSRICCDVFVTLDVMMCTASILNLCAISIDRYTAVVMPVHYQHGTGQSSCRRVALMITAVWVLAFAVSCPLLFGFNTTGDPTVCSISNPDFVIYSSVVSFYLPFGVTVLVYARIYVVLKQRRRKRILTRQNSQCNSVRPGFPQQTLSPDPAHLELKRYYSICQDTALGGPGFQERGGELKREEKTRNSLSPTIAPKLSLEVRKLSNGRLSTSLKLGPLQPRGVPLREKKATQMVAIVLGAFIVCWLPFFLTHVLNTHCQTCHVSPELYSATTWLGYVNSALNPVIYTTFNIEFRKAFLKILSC

Row | solubility at 2 h [3] | half-life at 1 μM [5] | SMILES | other results
1 | 22.4 mg/mL (≈ 54.6 mM) | – | O=C1CCc2ccc(CCN3CCN(c4cc(F)cc5sccc45)CC3)cc2N1 [Compound 1-a, 7-(2-(4-(6-fluorophenothiophen-4-yl)piperazin-1-yl)ethyl)-3,4-dihydroquinolin-2(1H)-one, reference compound] | IC50 [1]: 4.4 nM; IC50 (hERG potassium channel): 920 nM; IC50 [2]: 33 nM
2 | – | – | O=C1CCc2ccc(CCN3CCN(c4cc(F)cc5sccc45)CC3)cc2N1CO [Compound 1] | IC50 [1]: 3.5 nM; IC50 (hERG potassium channel): 1810 nM; IC50 [2]: 32 nM; EC50 [4]: 0.7 nM; EC50 (human D3 receptor): 7.1 nM; IC50 (human SERT): 13 nM
3 | 75 mg/mL (≈ 143 mM) | 0.69 min | CC(C)OC(=O)OCN1C(=O)CCc2ccc(CCN3CCN(c4cc(F)cc5sccc45)CC3)cc21 [Compound 2] | CLint scaled at 1 μM [5]: 2530 mL/min/kg
4 | > 200 mg/mL | 367 min | CCCCCCCCCCCC(=O)OCN1C(=O)CCc2ccc(CCN3CCN(c4cc(F)cc5sccc45)CC3)cc21 [Compound 3] | CLint scaled at 1 μM [5]: 4.73 mL/min/kg
5 | 23.4 mg/mL (≈ 48.7 mM) | 0.87 min | CC(=O)OCN1C(=O)CCc2ccc(CCN3CCN(c4cc(F)cc5sccc45)CC3)cc21 [Compound 5] | CLint scaled at 1 μM [5]: 2000 mL/min/kg
6 | 166 mg/mL (≈ 317 mM) | 1 min | CCCCC(=O)OCN1C(=O)CCc2ccc(CCN3CCN(c4cc(F)cc5sccc45)CC3)cc21 [Compound 6] | CLint scaled at 1 μM [5]: 1720 mL/min/kg
7 | > 200 mg/mL | 30 min | CCCCCCCCCC(=O)OCN1C(=O)CCc2ccc(CCN3CCN(c4cc(F)cc5sccc45)CC3)cc21 [Compound 7, (7-(2-(4-(6-fluorobenzo[b]thiophen-4-yl)piperazin-1-yl)ethyl)-2-oxo-3,4-dihydroquinolin-1(2H)-yl)methyl decanoate] | Metabolic stability in human liver microsomes (in words) [5]: good metabolic stability; CLint scaled at 1 μM [5]: 56.8 mL/min/kg
8 | > 200 mg/mL | > 120 min | CCCCCCCCCCCCCCCC(=O)OCN1C(=O)CCc2ccc(CCN3CCN(c4cc(F)cc5sccc45)CC3)cc21 [Compound 8, (7-(2-(4-(6-fluorobenzo[b]thiophen-4-yl)piperazin-1-yl)ethyl)-2-oxo-3,4-dihydroquinolin-1(2H)-yl)methyl palmitate] | Fluctuation in the plasma concentration of the active metabolite (compound 1) [6]: minimal fluctuation; Metabolic stability in human liver microsomes (in words) [5]: good metabolic stability
9 | > 200 mg/mL | – | CCCCCCCCCCCCCCCCCCCCCCCCCCC(=O)OCN1C(=O)CCc2ccc(CCN3CCN(c4cc(F)cc5sccc45)CC3)cc21 [Compound 76, (7-(2-(4-(6-fluorobenzo[b]thiophen-4-yl)piperazin-1-yl)ethyl)-2-oxo-3,4-dihydroquinolin-1(2H)-yl)methyl heptacosanoate] | –
10 | > 200 mg/mL | – | CCCCCCCC/C=C\CCCCCCCC(=O)OCn1c(=O)ccc2ccc(CCN3CCN(c4cc(F)cc5sccc45)CC3)cc21 [Compound 77, (7-(2-(4-(6-Fluorobenzo[b]thiophen-4-yl)piperazin-1-yl)ethyl)-2-oxoquinolin-1(2H)-yl)methyl oleate] | –
11 | > 200 mg/mL | – | CCCCC(C)(C)C(=O)OCN1C(=O)CCc2ccc(CCN3CCN(c4cc(F)cc5sccc45)CC3)cc21 [Compound 108, (7-(2-(4-(6-Fluorobenzo[b]thiophen-4-yl)piperazin-1-yl)ethyl)-2-oxo-3,4-dihydroquinolin-1(2H)-yl) methyl 2,2-dimethylhexanoate] | –
12 | > 200 mg/mL | – | CCCCCC(C)C(=O)OCN1C(=O)CCc2ccc(CCN3CCN(c4cc(F)cc5sccc45)CC3)cc21 (stereo not drawn) [Compound 110, (7-(2-(4-(6-Fluorobenzo[b]thiophen-4-yl)piperazin-1-yl)ethyl)-2-oxo-3,4-dihydroquinolin-1(2H)-yl) methyl 2-methylheptanoate] | –
13 | > 200 mg/mL | – | CCCCCC(CCCCC)C(=O)OCN1C(=O)CCc2ccc(CCN3CCN(c4cc(F)cc5sccc45)CC3)cc21 [Compound 112, (7-(2-(4-(6-Fluorobenzo[b]thiophen-4-yl)piperazin-1-yl)ethyl)-2-oxo-3,4-dihydroquinolin-1(2H)-yl) methyl 2-pentylheptanoate] | –
14 | > 200 mg/mL | – | CCCCCC(CCCCC)C(=O)OCn1c(=O)ccc2ccc(CCN3CCN(c4cc(F)cc5sccc45)CC3)cc21 [Compound 113, (7-(2-(4-(6-Fluorobenzo[b]thiophen-4-yl)piperazin-1-yl)ethyl)-2-oxoquinolin-1(2H)-yl)methyl 2-pentylheptanoate] | –
15 | > 200 mg/mL | – | C=CCCCCCCCCC(=O)N1C(=O)CCc2ccc(CCN3CCN(c4cc(F)cc5sccc45)CC3)cc21 [Compound 132, 7-(2-(4-(6-Fluorobenzo[b]thiophen-4-yl)piperazin-1-yl)ethyl)-1-(undec-10-enoyl)-3,4-dihydroquinolin-2(1H)-one] | –
16 | > 200 mg/mL | – | CCCCCCCCCC(=O)OCOC(=O)N1C(=O)CCc2ccc(CCN3CCN(c4cc(F)cc5sccc45)CC3)cc21 [Compound 133, (Decanoyloxy)methyl 7-(2-(4-(6-fluorobenzo[b]thiophen-4-yl)piperazin-1-yl)ethyl)-2-oxo-3,4-dihydroquinoline-1(2H)-carboxylate] | –
17 | > 200 mg/mL | – | CCCCCCCCCCCC(=O)OCn1c(=O)ccc2ccc(CCN3CCN(c4cc(F)cc5sccc45)CC3)cc21 [Compound 134, (7-(2-(4-(6-Fluorobenzo[b]thiophen-4-yl)piperazin-1-yl)ethyl)-2-oxoquinolin-1(2H)-yl)methyl dodecanoate] | –
